US20040192751A1, “Amino acid composition for ameliorating liver failure” (priority 2001, published 2004)

What was measured:
[1] = test system: mice in which alcoholic functional disorders of a liver were developed; assay: Serum GOT concentration 12 hours after ethanol administration in mice pre-administered amino acid compositions; format: in vivo; settings: judged from GOT and GPT values 12 h after ethanol
Protocol: In the present Examples, outbreak and healing of functional disorders of a liver were judged by employing GOT (Glutamic Oxaloacetic Transaminase), GPT (Glutamic Pyruvic Transaminase), total cholesterol and triglyceride which are indexes for functional disorders of the liver.
(§1) Measurements were conducted using a clinical diagnosis kit available from Wako Pure Chemical Industries, Ltd.
The following reagents were used for measurement of GOT.
The action of the substrate enzyme liquid to a specimen to be measured generates glutamic acid and oxalacetic acid from L-aspartic acid and α-keto glutaric acid, respectively, by means of GOT in the specimen. […]
The hydrogen peroxide thus produced quantitatively and oxidatively condenses the TOOS and 4-aminoantipyrine to generate violet pigment (refer to Formula 1) by the action of the co-existing peroxidase (POD).
The active value of the GOT in the specimen is measured by the violet absorbance. The ascorbic acid contained in the specimen is decomposed by the ascorbic acid oxidase contained in the substrate enzyme liquid, thereby affecting little influence on the measured value. […]
After a standard specimen having a known concentration prepared by using the standard liquid was preliminarily heated and the substrate buffer was added thereto, the absorbance of the standard specimen was measured and a calibration curve was prepared using the measured values. […]

[2] = test system: mice in which alcoholic functional disorders of a liver were developed; assay: Total cholesterol amount in the liver 12 hours after ethanol administration; format: in vivo; settings: 12 hours following the ethanol administration; control = no administration
Protocol: as §1
The following reagents were used for the measurement of the total cholesterol.
The action of the color generating agent to a specimen to be measured decomposes the cholesterols into the liberated cholesterols and fatty acids by the action of the cholesterol esterase. The cholesterols thus generated together with the liberated cholesterols already existing are oxidized to produce hydrogen peroxide by means of the action of the cholesterol oxidase. The hydrogen peroxide thus produced quantitatively and oxidatively condenses the phenols and 4-aminoantipyrine to generate red pigment (red quinone-based pigment, refer to Formula 3) by the action of the peroxidase (POD).
The concentration of the total cholesterol in the specimen was determined by measuring the red absorbance.
After 0.01 ml of the specimen was dissolved in isopropanol, 1.5ml of the color producing agent was added therein followed by heating at 37° C. for 10 minutes under sufficient agitation. The absorbance of the specimen at 505 nm was measured by using a blind specimen as reference by means of a spectrophotometer. […]

N[C@@H](Cc1ccc(O)cc1)C(=O)O [0.25% Tyr, tyrosine]
action for improving functional disorders of the liver using GOT and GPT as the indexes [1]: next most effective
total cholesterol in the liver, compared with control (FIG. 5) [2]: values lower than those of the control

N[C@@H](Cc1c[nH]c2ccccc12)C(=O)O [2% Trp, tryptophane]
action for improving functional disorders of the liver using GOT and GPT as the indexes [1]: next most effective
total cholesterol in the liver, compared with control (FIG. 5) [2]: values lower than those of the control
